Legend:
[1] = test system: KB tumors; experiment: Ex vivo biodistribution in KB tumor xenografts; parameters: species or system CB17 SCID mice; details: for KB tumor uptake: 13 ± 1 days after subcutaneous tumor induction, n = 5, mean ± SD
Procedure: For the assessment of the accumulation in the tumors of [^44Sc]Sc(DO3AM-NI) and [^68Ga]Ga(DO3AM-NI), ex vivo biodistribution studies were performed 90 and 240 min post injection using KB tumor xenografts.
(§1) For tumor induction, SCID mice were injected with 5x10^6 KB tumor cells in 0.9% NaCl (100 µL) subcutaneously into the left shoulder area. The tumor growth was assessed by caliper measurements, and tumor size was calculated using the following formula: (largest diameter × smallest diameter^2)/2. In vivo experiments were carried out approximately 13 ± 1 days after […] injection of tumor cells at the tumor volume of approximately 110 mm^3.
(§2) For the determination of ex vivo biodistribution of the radiotracers, control and KB tumor-bearing mice were injected intravenously with 8.42 ± 0.38 MBq of ^68Ga- or ^44Sc-labeled DO3AM-NI via the tail vein. Mice were euthanized with 5% isoflurane 90 min or 4 h after intravenous radiotracer injection. Three tissue samples were taken from the selected organs, and their weight and radioactivity were measured with a calibrated gamma counter (Perkin-Elmer Packard Cobra, Waltham, MA, USA). The radiotracer uptake was expressed as %ID/g tissue.

[2] = test system: KB tumors; experiment: In vivo PET/MRI imaging of KB tumor-bearing mice, quantitative SUV analysis; parameters: species or system CB17 SCID mice; details: 240 min after injection
Procedure: The tumor-specific accumulation of [^44Sc]Sc(DO3AM-NI) and [^68Ga]Ga(DO3AM-NI) was investigated by PET/MRI imaging 90 and 240 min after radiotracer injection using KB tumor-bearing mice. The subcutaneously growing KB tumors were clearly visualized using [^44Sc]Sc(DO3AM-NI) 90 and 240 min post injection with relatively higher SUVmean and SUVmax values (SUVmean: 1.46 ± 0.32 and SUVmax: 2.35 ± 0.47 at 90 min and SUVmean: 0.67 ± 0.03 and SUVmax: 1.55 ± 0.28 at 240 min). Lower accumulation was found in the same KB tumors by using the ^68Ga-labeled molecule (SUVmean: 0.79 ± 0.10, SUVmax: 1.94 ± 0.40 at 90 min and SUVmean: 0.51 ± 0.09 and SUVmax: 1.23 ± 0.10 at 240 min); however, this difference between the radiotracers was not significant (Figure 4E). […] In contrast, no significant differences were found between the T/M SUV values of the two radiotracers 90 min post injection (Figure 4F).
as §1
For in vivo imaging studies, healthy control and KB tumor-bearing CB17 SCID mice were injected with 8.42 ± 0.38 MBq of ^68Ga- or ^44Sc-labeled DO3AM-NI via the lateral tail vein 13 ± 1 days after the inoculation of KB tumor cells. Then, 65 and 225 min after radiotracer injection, mice were anaesthetized by 3% isoflurane (Forane) with a dedicated small animal anesthesia device and whole-body T1-weighted MRI scans were performed (3D GRE EXT multi-FOV; TR/TE 15/2 ms; phase: 100; FOV 60 mm; NEX 2) using the preclinical nanoScan PET/MRI system with 1 Tesla magnetic field (Mediso Ltd., Hungary). After MRI imaging, 20 min static whole-body PET scans were acquired (90 min and 4 h after radiotracer injection).
Quantitative radiotracer uptake was expressed in terms of standardized uptake value (SUV), SUV = [VOI activity (Bq/mL)]/[injected activity (Bq)/animal weight (g)], assuming a density of 1 g/mL. Volumes of interest (VOI) were manually drawn around the edge of the organ or tumor activity using the InterView™ FUSION (Mediso Ltd., Hungary) image analysis software. Tumor-to-muscle (T/M) ratios were computed as the ratio between the activity in the tumor VOI and in the background (muscle) VOI. Skeletal muscles of the right shoulder area were used as background.

[3] = Stability of labeled complexes in mouse plasma, Na2H2EDTA and oxalic acid by radio-HPLC; format: in vitro ADME
Procedure: (§3) Subsequently, the octanol/water partition coefficient (logP) of the labeled complexes was determined to be −3.89 for [^68Ga]Ga(DO3AM-NI) and −2.59 for [^44Sc]Sc(DO3AM-NI). […] To assess the labeled compounds’ stability, the chelates were mixed with the solution of mouse plasma, Na2H2EDTA and oxalic acid, respectively. Aliquots were then taken at different time points (0, 60, 120 and 240 min) and injected into the radio-HPLC column, and the chromatograms were analyzed. After 240 min, the RCP of the samples was above 93% in all three cases.
A 10 µL volume of [^68Ga]Ga(DO3AM-NI) and [^44Sc]Sc(DO3AM-NI) solution was added to the solution of 90 µL of mouse plasma, Na2H2EDTA (0.01 M) and oxalic acid (0.01 M), respectively. Samples were analyzed by radio-HPLC at the beginning and after 60, 120 and 240 min. The analytical conditions were the same as detailed for the quality control of the labeled compound.

[4] = Ex vivo biodistribution in healthy control SCID mice; parameters: species or system CB17 SCID mice; details: mean ± SD
Procedure: Ex vivo biodistribution studies were carried out 90 min and 240 min after intravenous injection of ^44Sc- or ^68Ga-labeled DO3AM-NI, and the accumulated activities of the organs and tissues were determined using a gamma counter. By the quantitative analysis of the ex vivo data, significant differences were found between the %ID/g values when ^44Sc- and ^68Ga-labeled DO3AM-NI accumulations were compared. […] In contrast, e.g., [^18F]fluorine- [28], [^131I]iodine- [29], [^99mTc]technetium- [30] and [^64Cu]copper-labeled nitroimidazole-based probes, due to their chemical properties, were mainly metabolized via the liver, and the large abdominal accumulation impaired the evaluation of abdominal tumors in the PET images. The ^44Sc- and ^68Ga-labeled nitroimidazole derivatives had more favorable properties in terms of the reporting and evaluation of PET images and due to their rapid elimination through the urinary system.
as §2

[5] = Octanol/water partition coefficient (logP) of labeled complexes; format: physicochemical; details: 1-octanol/water, triplicates
Procedure: as §3
A 10 µL volume of [^68Ga]Ga(DO3AM-NI) and [^44Sc]Sc(DO3AM-NI) solution (~5 MBq) was mixed with 500 µL of 1-octanol and 490 µL of water in an Eppendorf vial, respectively. The mixture was shaken with a vortex shaker (600 rpm) for 10 min and centrifuged (6000 rpm) for 5 min. Then, 100 µL from the octanol phase and 1 μL from the aqueous phase were pipetted into vials, and the aqueous aliquot was diluted to 100 µL with water in order to minimize the effects of sample geometry and the high difference of activity concentrations in the two solvents. The radioactivity of the fractions was determined with a gamma counter. The measurements were performed in triplicates for both labeled compounds.

Structure (SMILES): O=C([O-])CN1CCN(CC(=O)[O-])CCN(CC(=O)NCCn2ccnc2[N+](=O)[O-])CCN(CC(=O)[O-])CC1.[44Sc+3] [[^44Sc]Sc(DO3AM-NI)]
- T/M (tumor-to-muscle ratio) ([1]; 90 min after injection): 79.30 ± 5.26
- KB tumor uptake ([1]; 90 min after injection): 0.82 ± 0.11 %ID/g
- T/M (tumor-to-muscle ratio) ([1]; 240 min after injection): 99.35 ± 5.14
- KB tumor uptake ([1]; 240 min after injection): 0.70 ± 0.14 %ID/g
- T/M ratio relative to the T/M ratio of [^68Ga]Ga(DO3AM-NI) ([1]; at each time point (90 and 240 min)): 10–15 fold
- tumor-to-muscle ratio T/M SUVmax [2]: 129.68 ± 26.11
- tumor-to-muscle ratio T/M SUVmean [2]: 182.67 ± 23.50
- RCP after 240 min ([3]; Na2H2EDTA (0.01 M)): above 93%
- RCP after 240 min ([3]; mouse plasma): above 93%
- RCP after 240 min ([3]; oxalic acid (0.01 M)): above 93%
- Blood uptake ([4]; 90 min after i.v. injection): 0.08 ± 0.01 %ID/g
- Fat uptake ([4]; 90 min after i.v. injection): 0.01 ± 0.001 %ID/g
- Heart uptake ([4]; 90 min after i.v. injection): 0.04 ± 0.01 %ID/g
- Kidney uptake ([4]; 90 min after i.v. injection): 1.17 ± 0.41 %ID/g
- Large intestine uptake ([4]; 90 min after i.v. injection): 0.05 ± 0.01 %ID/g
- Liver uptake ([4]; 90 min after i.v. injection): 0.14 ± 0.09 %ID/g
- Lung uptake ([4]; 90 min after i.v. injection): 0.10 ± 0.04 %ID/g
- Muscle uptake ([4]; 90 min after i.v. injection): 0.01 ± 0.01 %ID/g
- Small intestine uptake ([4]; 90 min after i.v. injection): 0.10 ± 0.05 %ID/g
- Spleen uptake ([4]; 90 min after i.v. injection): 0.07 ± 0.02 %ID/g
- Stomach uptake ([4]; 90 min after i.v. injection): 0.09 ± 0.03 %ID/g
- Urine uptake ([4]; 90 min after i.v. injection): 57.78 ± 12.41 %ID/g
- Blood uptake ([4]; 240 min after i.v. injection): 0.03 ± 0.01 %ID/g
- Fat uptake ([4]; 240 min after i.v. injection): 0.01 ± 0.01 %ID/g
- Heart uptake ([4]; 240 min after i.v. injection): 0.03 ± 0.01 %ID/g
- Kidney uptake ([4]; 240 min after i.v. injection): 0.89 ± 0.23 %ID/g
- Large intestine uptake ([4]; 240 min after i.v. injection): 0.04 ± 0.004 %ID/g
- Liver uptake ([4]; 240 min after i.v. injection): 0.20 ± 0.04 %ID/g
- Lung uptake ([4]; 240 min after i.v. injection): 0.04 ± 0.003 %ID/g
- Muscle uptake ([4]; 240 min after i.v. injection): 0.007 ± 0.002 %ID/g
- Small intestine uptake ([4]; 240 min after i.v. injection): 0.03 ± 0.01 %ID/g
- Spleen uptake ([4]; 240 min after i.v. injection): 0.06 ± 0.01 %ID/g
- Stomach uptake ([4]; 240 min after i.v. injection): 0.03 ± 0.005 %ID/g
- Urine uptake ([4]; 240 min after i.v. injection): 6.23 ± 1.25 %ID/g
- octanol/water partition coefficient (logP) [5]: −2.59

From paper PMC9228955, “Synthesis, Physicochemical, Labeling and In Vivo Characterization of ^44Sc-Labeled DO3AM-NI as a Hypoxia-Sensitive PET Probe” (Pharmaceuticals, 2022)
